Measurements as given in ChEMBL document CHEMBL1201862, “PubChem BioAssay data set” (2004).
Calls of active or inactive are those of the source.

What was measured:
[1] = biological target: FAD-linked sulfhydryl oxidase ALR (Homo sapiens, UniProt P55789); test: ALR-catalysed DTT oxidation blockers – biochemical, H2O2 detection, luminescence, cherry-pick, dose response (AID 493248)
[2] = cells; format: functional
[3] = system: H9c2; test: cells; format: functional, cell-based; settings: Rattus norvegicus, H9c2, Myocardium;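 also: confirmatory concentration-response retest of ultra-high-throughput screening hits for modulation of myocardial damage; cell death induced by hydrogen peroxide oxidative stress; compound pretreatment for 60 min then peroxide exposure for 2 h; potency is for protecting the cells against peroxide damage rather than for killing them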
[4] = biological target: T1, Ubiquitin-conjugating enzyme E2 N (Homo sapiens, UniProt P61088); format: functional;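 also: Dose-response confirmation in a TR-FRET assay detecting UBC13-driven polyubiquitin chain formation, inhibition measured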
T1 sequence (P61088 whole entry): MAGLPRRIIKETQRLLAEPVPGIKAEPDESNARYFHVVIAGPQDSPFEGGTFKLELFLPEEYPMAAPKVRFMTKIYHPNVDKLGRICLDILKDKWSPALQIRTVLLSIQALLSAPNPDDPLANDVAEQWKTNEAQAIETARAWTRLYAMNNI

[5] = biological target: T2, DNA repair protein RAD52 homolog (Homo sapiens, UniProt P43351); format: functional, biochemical
T2 sequence (P43351 whole entry): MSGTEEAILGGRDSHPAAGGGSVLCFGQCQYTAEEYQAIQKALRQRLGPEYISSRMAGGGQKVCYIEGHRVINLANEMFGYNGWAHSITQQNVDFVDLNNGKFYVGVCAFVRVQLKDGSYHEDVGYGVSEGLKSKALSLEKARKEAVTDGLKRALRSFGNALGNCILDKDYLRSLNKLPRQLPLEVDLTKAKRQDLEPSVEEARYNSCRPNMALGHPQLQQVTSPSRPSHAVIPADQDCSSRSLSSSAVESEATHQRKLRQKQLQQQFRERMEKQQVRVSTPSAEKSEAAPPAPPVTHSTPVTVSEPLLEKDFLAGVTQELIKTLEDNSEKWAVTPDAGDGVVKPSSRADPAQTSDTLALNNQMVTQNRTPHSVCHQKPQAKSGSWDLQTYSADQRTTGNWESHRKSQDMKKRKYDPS

[6] = Luminescence Cell-Based Dose Confirmation HTS to Identify Activators of 5'UTR Stem-Loop Driven Alpha-Synuclein mRNA Translation in H4 Neuroglioblastoma Cells. [Related pubchem assays: 1829 (Project Summary), 1814 (Primary HTS)]; format: functional
[7] = Luminescence Cell-Based Dose Response HTS to Identify Activators of Luciferase Translation or Activity in H4 […] Cells. [Related pubchem assays: 1829 (Project Summary), 1814 (Primary HTS)]; format: functional
[8] = system: H4; test: Luminescence Cell-Based Dose Response HTS to Identify Activators of 5'UTR Stem-Loop Driven Prion Protein mRNA Translation in H4 Neuroglioblastoma Cells. [Related pubchem assays: 1829 (Project Summary), 1814 (Primary HTS)]; format: functional; settings: Homo sapiens
[9] = Luminescence Cell-Based Dose Retest to Confirm Inhibitors of Cancer Stem Cells. [Related pubchem assays (depositor defined):AID2717, AID2721]; format: functional; settings: Homo sapiens
[10] = biological target: T3, Replicative DNA helicase DnaB (Mycobacterium tuberculosis, UniProt P9WMR3); test: DnaB intein splicing inhibitors, dose response, biochemical, cell-free fluorescence (AID 449749); format: functional
T3 sequence (P9WMR3 whole entry): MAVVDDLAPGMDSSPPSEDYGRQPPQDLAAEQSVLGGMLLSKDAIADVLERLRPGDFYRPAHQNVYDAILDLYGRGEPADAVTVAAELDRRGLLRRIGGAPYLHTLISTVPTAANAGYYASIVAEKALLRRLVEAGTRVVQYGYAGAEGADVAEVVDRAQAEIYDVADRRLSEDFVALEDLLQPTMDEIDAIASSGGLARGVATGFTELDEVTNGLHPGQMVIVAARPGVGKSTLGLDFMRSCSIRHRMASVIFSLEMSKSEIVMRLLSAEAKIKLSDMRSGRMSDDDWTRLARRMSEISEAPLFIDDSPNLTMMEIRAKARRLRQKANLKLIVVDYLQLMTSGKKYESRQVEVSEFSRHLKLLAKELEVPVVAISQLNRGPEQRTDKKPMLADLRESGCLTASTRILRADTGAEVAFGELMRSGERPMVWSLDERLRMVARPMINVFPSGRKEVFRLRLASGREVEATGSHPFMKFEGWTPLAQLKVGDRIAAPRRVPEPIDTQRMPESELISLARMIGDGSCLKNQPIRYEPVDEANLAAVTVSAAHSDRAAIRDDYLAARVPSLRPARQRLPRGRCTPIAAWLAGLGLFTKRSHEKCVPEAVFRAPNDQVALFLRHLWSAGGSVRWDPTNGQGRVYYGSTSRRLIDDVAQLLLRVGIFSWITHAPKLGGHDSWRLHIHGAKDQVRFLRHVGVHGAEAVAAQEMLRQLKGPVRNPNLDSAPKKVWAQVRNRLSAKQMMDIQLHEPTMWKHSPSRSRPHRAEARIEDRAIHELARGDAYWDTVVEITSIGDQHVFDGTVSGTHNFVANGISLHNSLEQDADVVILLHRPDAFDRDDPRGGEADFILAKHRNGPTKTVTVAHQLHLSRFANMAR

[11] = biological target: T4, Protein RecA (Mycobacterium tuberculosis, UniProt P9WHJ3); test: Fluorescence Cell-Free Homogeneous Dose Retest to Identify Inhibitors of RecA-Intein Splicing Activity. [Related pubchem assays (depositor defined):AID2097, AID2223, AID489010, AID492950]; format: functional
T4 sequence (P9WHJ3 whole entry): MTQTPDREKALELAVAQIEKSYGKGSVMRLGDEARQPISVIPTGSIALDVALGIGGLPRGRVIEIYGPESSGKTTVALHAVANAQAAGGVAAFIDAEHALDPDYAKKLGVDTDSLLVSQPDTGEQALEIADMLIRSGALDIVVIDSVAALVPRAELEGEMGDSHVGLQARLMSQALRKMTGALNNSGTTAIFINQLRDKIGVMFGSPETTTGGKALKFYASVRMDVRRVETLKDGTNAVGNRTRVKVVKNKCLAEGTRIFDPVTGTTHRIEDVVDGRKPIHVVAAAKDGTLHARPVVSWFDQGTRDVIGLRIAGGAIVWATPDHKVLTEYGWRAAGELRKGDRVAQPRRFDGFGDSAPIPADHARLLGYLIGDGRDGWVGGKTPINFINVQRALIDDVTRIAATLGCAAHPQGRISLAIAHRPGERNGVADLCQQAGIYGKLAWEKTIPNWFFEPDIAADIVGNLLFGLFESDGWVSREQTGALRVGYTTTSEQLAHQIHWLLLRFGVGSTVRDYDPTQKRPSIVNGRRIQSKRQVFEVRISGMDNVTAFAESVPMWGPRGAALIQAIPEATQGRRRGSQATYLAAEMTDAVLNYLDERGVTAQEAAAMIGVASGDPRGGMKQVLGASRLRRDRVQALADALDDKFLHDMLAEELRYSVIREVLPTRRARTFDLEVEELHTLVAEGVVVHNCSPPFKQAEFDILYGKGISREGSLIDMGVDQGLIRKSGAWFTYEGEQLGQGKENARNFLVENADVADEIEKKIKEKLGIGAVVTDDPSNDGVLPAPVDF

[12] = biological target: T5, Rac GTPase-activating protein 1 (Homo sapiens, UniProt Q9H0H5); test: blockers of MgcRacGAP-driven Rac1 GTP hydrolysis – biochemical, ADP Hunter fluorescence, primary and confirmatory, confirmation (AID 624330); format: functional
T5 sequence (Q9H0H5 whole entry): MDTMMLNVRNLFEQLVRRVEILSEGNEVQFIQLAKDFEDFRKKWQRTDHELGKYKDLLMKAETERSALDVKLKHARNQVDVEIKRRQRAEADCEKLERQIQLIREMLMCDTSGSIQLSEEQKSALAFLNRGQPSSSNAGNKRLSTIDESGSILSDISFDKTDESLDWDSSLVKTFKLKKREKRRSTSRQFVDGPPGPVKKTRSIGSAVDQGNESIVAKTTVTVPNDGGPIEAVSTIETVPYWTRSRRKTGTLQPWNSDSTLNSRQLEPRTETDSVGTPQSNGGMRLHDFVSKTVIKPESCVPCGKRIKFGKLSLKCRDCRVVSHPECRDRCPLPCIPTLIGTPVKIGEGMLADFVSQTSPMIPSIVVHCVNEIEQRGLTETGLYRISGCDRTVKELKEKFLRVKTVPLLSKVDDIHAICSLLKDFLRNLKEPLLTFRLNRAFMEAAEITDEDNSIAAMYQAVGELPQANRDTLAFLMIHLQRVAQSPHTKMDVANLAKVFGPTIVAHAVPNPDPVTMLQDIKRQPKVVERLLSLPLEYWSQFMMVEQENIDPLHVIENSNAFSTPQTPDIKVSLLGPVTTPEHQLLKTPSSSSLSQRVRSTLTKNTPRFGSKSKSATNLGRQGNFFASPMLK

[13] = biological target: T6, RNA-binding protein pos-1 (Caenorhabditis elegans, UniProt G5EF15); test: disruptors of C. elegans POS-1 RNA interaction – biochemical, fluorescence polarization, dose response (AID 1964);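 also: purified POS-1 fused to maltose binding protein made in E. coli; potency of compounds blocking POS-1 binding to fluorescent RNA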
T6 sequence (G5EF15 whole entry): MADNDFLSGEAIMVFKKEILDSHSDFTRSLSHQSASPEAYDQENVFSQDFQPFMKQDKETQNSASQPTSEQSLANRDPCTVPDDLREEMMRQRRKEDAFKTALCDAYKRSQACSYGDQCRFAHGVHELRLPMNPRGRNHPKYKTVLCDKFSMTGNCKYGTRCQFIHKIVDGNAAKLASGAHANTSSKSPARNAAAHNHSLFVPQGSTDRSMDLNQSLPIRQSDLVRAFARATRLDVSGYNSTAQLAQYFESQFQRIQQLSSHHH

[14] = biological target: T7, Zinc finger protein mex-5 (Caenorhabditis elegans, UniProt Q9XUB2); test: potency of MEX-5 RNA-binding blockers – biochemical, C. elegans, fluorescence polarization, dose response (AID 1960)
T7 sequence (Q9XUB2 whole entry): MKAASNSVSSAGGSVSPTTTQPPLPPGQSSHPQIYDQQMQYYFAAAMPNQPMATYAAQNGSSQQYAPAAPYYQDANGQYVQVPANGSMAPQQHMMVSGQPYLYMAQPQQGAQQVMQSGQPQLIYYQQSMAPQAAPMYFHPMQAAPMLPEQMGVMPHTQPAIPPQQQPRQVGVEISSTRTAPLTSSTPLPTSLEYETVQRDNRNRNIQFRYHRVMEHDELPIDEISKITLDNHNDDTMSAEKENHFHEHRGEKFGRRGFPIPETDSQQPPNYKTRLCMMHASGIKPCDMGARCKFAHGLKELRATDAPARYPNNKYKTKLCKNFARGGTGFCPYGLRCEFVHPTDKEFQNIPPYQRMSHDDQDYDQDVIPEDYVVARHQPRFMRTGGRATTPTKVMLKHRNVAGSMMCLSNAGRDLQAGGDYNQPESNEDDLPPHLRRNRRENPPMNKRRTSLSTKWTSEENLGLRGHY

Chain of FAD-linked sulfhydryl oxidase ALR (P55789 whole entry): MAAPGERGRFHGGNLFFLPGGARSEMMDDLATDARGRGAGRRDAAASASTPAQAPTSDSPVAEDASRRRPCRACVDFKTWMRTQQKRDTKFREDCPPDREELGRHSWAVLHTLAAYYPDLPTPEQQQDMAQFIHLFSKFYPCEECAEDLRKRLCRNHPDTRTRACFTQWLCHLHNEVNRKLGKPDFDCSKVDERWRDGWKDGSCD

| SMILES | AC50 [1] | IC50 [3] | other results |
| --- | --- | --- | --- |
| Cn1c(S)nnc1CSCc1ccc(Cl)c(Cl)c1 | 3.93 µM (active) | – | – |
| COc1cc(OC)c2ccc(=O)oc2c1C(CC(=O)N1CCCC1)c1ccc(N(C)C)cc1 (configuration not stated) | 2.89 µM (active) | – | – |
| O=C(c1ccc([N+](=O)[O-])o1)N1CCN(Cc2ccccc2)CC1 | – | – | IC50 [2]: 0.55 µM (active) |
| O=C(NCCc1c[nH]c2ccccc12)C(=O)NCC(c1ccco1)N1CCN(c2ccccc2F)CC1 (configuration not stated) | – | 12.2 µM (active) | – |
| Brc1ccc(-c2ccc(CNCc3ccccn3)o2)cc1 | – | – | IC50 [2]: 1.25 µM (active) |
| CCN(C(=O)CN1CCN(c2ccccc2O)CC1)c1c(N)n(Cc2ccccc2)c(=O)[nH]c1=O | 16.2 µM (active) | – | – |
| Cc1ccc(C(=O)N/C(=C\c2ccc(-c3cccc([N+](=O)[O-])c3)o2)C(=O)NCCCN(C)C)cc1 | – | – | IC50 [4]: > 20 µM (inactive); AC50 [5]: 24.7 µM (active) |
| CCN1CCCC(OC(=O)c2cc(-c3ccc(C)cc3)nc3ccccc23)C1 (configuration not stated) | – | – | EC50 [6]: > 120 µM (not active); EC50 [7]: 31.1 µM (active); EC50 [8]: > 120 µM (not active); AC50 [5]: 8.59 µM (active) |
| C[C@H](NC(=O)c1[nH]cnc1C(=O)NCC(=O)OCc1ccccc1)c1ccccc1 | – | > 79 µM (inactive) | – |
| CCOCc1c(C(=O)NC2=C(C(=O)OCC)C(CC)=Nc3ccccc3N2)oc2ccccc12 | – | > 79 µM (inactive) | – |
| c1ccc2c(c1)nc(Nc1ccc3c(c1)OCO3)c1nnnn12 | – | 5.99 µM (active) | – |
| O=C(Nc1cccc([N+](=O)[O-])c1)c1[nH]ncc1Cl | 0.847 µM (active) | – | – |
| COc1ccc(CNc2nc3ccccc3n2C(C)C)c(O)c1 | 0.146 µM (active) | – | – |
| Cc1cc(C(=O)NNc2ccc(F)cc2)no1 | 10.5 µM (active) | – | AC50 [9]: 2.05 µM (active) |
| Cc1ccc(S(=O)(=O)N(C(=O)c2ccncc2)c2ccc(OC(=O)c3ccncc3)c3ccccc23)c(C)c1 | – | – | AC50 [10]: 15.4 µM (active); EC50 [11]: 10 µM (active) |
| CCOC(=O)CSc1nnc(CSc2nc(O)c3c4c(sc3n2)CCC4)n1C | – | > 79 µM (inactive) | – |
| COc1ccc(N2CCN(C(=O)NC3CCCCC3)CC2)cc1 | 5.03 µM (active) | – | IC50 [12]: 137 µM (active) |
| O=C(CSc1nc(O)c2ccccc2n1)N1CCN(S(=O)(=O)c2ccccc2)CC1 | – | > 79 µM (inactive) | – |
| Cc1ccc(-c2nnc(COC(=O)c3cccs3)o2)cc1 | – | – | IC50 [2]: 17.5 µM (active) |
| O=C(Cc1nnc(O)c2ccccc12)OCC(=O)c1ccccc1 | – | 20.5 µM (active) | – |
| Cc1ccc(/N=C/c2cc(Br)cc(Cl)c2O)cc1 | – | 10.4 µM (active) | EC50 [13]: > 300 µM (not active); EC50 [14]: > 300 µM (not active) |
| COc1cc(/C(C)=N/NC(=O)CN2CCN(S(=O)(=O)c3ccc(C)cc3)CC2)ccc1O | 3.76 µM (active) | – | – |
| Cn1cccc1CC(=O)N/N=C/c1ccc([N+](=O)[O-])cc1 | 6.99 µM (active) | – | – |
